Reference: ChEMBL document CHEMBL1649532, “Trypanocidal activity of 8-methyl-5'-{[(Z)-4-aminobut-2-enyl]-(methylamino)}adenosine (Genz-644131), an adenosylmethionine decarboxylase inhibitor” (Antimicrob Agents Chemother, 2009)
In brackets after ≈: the same amount, converted by molar mass. Activity calls are given as the source filed them. The rule behind the calls is not given here.

Legend:
[1] = tested on: Trypanosoma brucei rhodesiense; experiment: Trypanocidal activity against Trypanosoma brucei rhodesiense KETRI2002 infected in mouse assessed as protection against trypanosomal infection at 2 mg/kg, ip QD administered 24 hrs postinfection; type: functional, organism-based; parameters: dose 2 mg/kg
[2] = tested on: Trypanosoma brucei brucei; experiment: Trypanocidal activity against Trypanosoma brucei brucei EATRO infected in mouse assessed as mean survival time at 2 mg/kg, ip QD for 4 days; type: functional; details: route intraperitoneal
[3] = tested on: Trypanosoma brucei rhodesiense; experiment: Trypanocidal activity against Trypanosoma brucei rhodesiense KETRI243 infected in mouse assessed as average survival time at 2 mg/kg, ip QD administered 24 hrs postinfection; type: functional; details: route intraperitoneal
[4] = tested on: Trypanosoma brucei rhodesiense; experiment: Trypanocidal activity against Trypanosoma brucei rhodesiense KETRI1992 infected in mouse assessed as average survival time at 2 mg/kg, ip QD administered 24 hrs postinfection; type: functional; details: route intraperitoneal
[5] = tested on: Trypanosoma brucei rhodesiense; experiment: Trypanocidal activity against Trypanosoma brucei rhodesiense KETRI243 infected in mouse assessed as protection against trypanosomal infection at 2 mg/kg, ip QD administered 24 hrs postinfection; type: functional, organism-based; parameters: dose 2 mg/kg
[6] = tested on: Trypanosoma brucei rhodesiense; experiment: Trypanocidal activity against Trypanosoma brucei rhodesiense KETRI1992 infected in mouse assessed as protection against trypanosomal infection at 2 mg/kg, ip QD administered 24 hrs postinfection; type: functional, organism-based; parameters: dose 2 mg/kg
[7] = tested on: Trypanosoma brucei rhodesiense; experiment: Ratio of Kinact to Kiapp for Trypanosoma brucei rhodesiense AdoMetDC
[8] = tested on: Trypanosoma brucei rhodesiense; experiment: Trypanocidal activity against Trypanosoma brucei rhodesiense KETRI2538 after 48 hrs; type: functional, organism-based; details: KETRI2538, 48 h
[9] = tested on: Trypanosoma brucei brucei; experiment: Trypanocidal activity against Trypanosoma brucei brucei EATRO after 48 hrs; type: functional, organism-based
[10] = tested on: Trypanosoma brucei rhodesiense; experiment: Trypanocidal activity against Trypanosoma brucei rhodesiense KETRI243 after 48 hrs; type: functional, organism-based; details: KETRI243, 48 h

SMILES | Activity [1] | MST [2] [days] | MST [3] [days] | MST [4] [days] | Activity [5] | Activity [6] | Activity [7] [min⁻¹ M⁻¹] | IC50 [8] [µg/mL] | IC50 [9] [µg/mL] | IC50 [10] [µg/mL]
N=C(N)c1ccc(OCCCCCOc2ccc(C(=N)N)cc2)cc1 [PENTAMIDINE] | Active | >35 | 11.6 | 18 | inactive | inactive |  |  |  | 
CN(C/C=C\CN)C[C@H]1O[C@@H](n2cnc3c(N)ncnc32)[C@H](O)[C@@H]1O |  |  |  |  |  |  | 1.5 | 0.021 (≈ 0.0601 µM) | 0.05 (≈ 0.143 µM) | 0.02 (≈ 0.0572 µM)
